These results are taken from article PMC7775894 (Bioorganic chemistry, 2020).

Data set [1] relates to M. tb H37Rv strain. In words: Microplate alamarBlue assay. In kind it is cell-based, Mycobacterium tuberculosis. For orientation: Alamar Blue is a resazurin reagent that responds to reducing activity.
Data set [2] has as its system Mycobacterium abscessus (M. abs). In words: MABA MIC against M. abs. In kind it is cell-based. Conditions: for MIC: Mycobacteroides abscessus, read-out: M. abs MIC.
Data set [3] has as its system Mycobacterium avium (M. avium). In words: MABA MIC against M. avium. Particulars: for MIC: Mycobacterium avium, read-out: M. avium MIC. The format is cell-based.
In data set [4] the test system is M. tb V4207/DS. Briefly: microbe, parasite or virus in culture. In kind it is cell-based. Conditions: Mycobacterium tuberculosis, read-out: M. tb MIC V4207/DS.
Data set [5] concerns Vero cells. In words: Cytotoxicity on Vero cells. The format is cell-based. Conditions: SI = IC50(Vero)/MIC(H37Rv).
Data set [6] can be described thus: physchem. Conditions: water, kinetic from dmso stock.
Data set [7] relates to XDR M. tb strains. Briefly: microbe, parasite or virus in culture. The format is cell-based. Conditions: Mycobacterium tuberculosis, read-out: MIC against XDR M. tb strains.
The test system of data set [8] is DS- and DR-TB. In words: MIC against both DS- and DR-TB as stated in text. Particulars: Mycobacterium tuberculosis, read-out: MIC against both DS- and DR-TB.
The test system of data set [9] is DS- and DR-TB. Particulars: cited from earlier work.
For data set [10] the following is noted: cited from earlier work.
The subject of data set [11] is M. tb H37Rv strain. Particulars: cited from earlier work.
The conditions of data set [12]: cited from earlier work. This is another data set of the same source.
Where [13] appears, read: Mycobacterium tuberculosis, H37RV.
The mark [14] stands for this setting: M. tb H37Rv, MABA, at least 90% growth inhibition, average of three measurements.

Values after ≈ are worked out from the molar mass of the structure shown. Values joined by “and” are separate entries in the source; they are usually repeats but may differ in a detail not shown here. Equal values may be shown once. Read-outs that look alike come from different tables or passages of the source.

Compound `O=C(NC12CC3CC(CC(O)(C3)C1)C2)c1cc2ccccc2[nH]1` [8a, N-(3-hydroxyadamantan-1-yl)-1H-indole-2-carboxamide] yielded an MIC in data set [1] (setting [13]) of 51.5 µM (≈ 16 µg/mL).
In the case of `COc1cccc2[nH]c(C(=O)NC34CC5CC(CC(C5)C3)C4)cc12` [8b, N-(1-Adamantyl)-4-methoxy-1H-indole-2-carboxamide], the MIC in [1] (setting [13]) was 0.096 µM (≈ 0.0311 µg/mL); in data set [2], 12.3 µM (≈ 3.99 µg/mL); in data set [3] it was over 197 µM; in data set [4], 0.096 µM (≈ 0.0311 µg/mL). The “M. avium MIC” value in [3] (MABA) is over 197 µM. In data set [5], the “Selectivity index (SI)” value is on record as at least 2048. Moreover, the solubility (kinetic) (as a rule, solubility judged after dilution from a stock solution rather than from solid) in data set [6] was found to be 5 µg/mL (≈ 15.4 µM).
`COc1cccc2[nH]c(C(=O)NC34CC5CC(CC(O)(C5)C3)C4)cc12` [8c, N-(3-hydroxyadamantan-1-yl)-4-methoxy-1H-indole-2-carboxamide]: in [1] (setting [13]), the MIC stood at 11.7 µM (≈ 3.98 µg/mL). Besides, in data set [6], the solubility (kinetic) amounted to 30 µg/mL (≈ 88.1 µM).
Regarding `COc1ccc2[nH]c(C(=O)NC34CC5CC(CC(C5)C3)C4)cc2c1` [8d, N-(1-Adamantyl)-5-methoxy-1H-indole-2-carboxamide], the MIC in data set [1] (setting [13]) is 0.77 µM (≈ 0.25 µg/mL); in [2] it was over 197 µM; in data set [3], over 197 µM; in data set [4], 0.39 to 0.77 µM (≈ 0.127 to 0.25 µg/mL). Further, in data set [5], the “Selectivity index (SI)” value was at least 256.
Take `COc1ccc2[nH]c(C(=O)NC34CC5CC(CC(O)(C5)C3)C4)cc2c1` [8e, N-(3-hydroxyadamantan-1-yl)-5-methoxy-1H-indole-2-carboxamide]: the MIC in [1] (setting [13]) came to 47 µM (≈ 16 µg/mL).
Take `Cc1ccc2[nH]c(C(=O)NC34CC5CC(CC(C5)C3)C4)cc2c1` [8f, N-(1-Adamantyl)-5-methyl-1H-indole-2-carboxamide]: the MIC in data set [1] (setting [13]) is 0.2 µM (≈ 0.0617 µg/mL); in [2], over 207 µM; in data set [3], over 207 µM; in data set [4], 0.2 µM (≈ 0.0617 µg/mL). Further, the “Selectivity index (SI)” value in data set [5] is at least 1024.
Regarding `Cc1ccc2[nH]c(C(=O)NC34CC5CC(CC(O)(C5)C3)C4)cc2c1` [8g, N-(3-hydroxyadamantan-1-yl)-5-methyl-1H-indole-2-carboxamide], in [1] (setting [13]), the MIC turned out to be 24.7 µM (≈ 8.01 µg/mL).
For `O=C(NC12CC3CC(CC(O)(C3)C1)C2)c1cc2cc(Cl)ccc2[nH]1` [8h, 5-chloro-N-(3-hydroxyadamantan-1-yl)-1H-indole-2-carboxamide], the MIC in data set [1] (setting [14]) and in data set [1] (setting [13]) was over 93 µM in each case.
With `O=C(NC12CC3CC(CC(O)(C3)C1)C2)c1cc2ccc(Br)cc2[nH]1` [8i, 6-bromo-N-(3-hydroxyadamantan-1-yl)-1H-indole-2-carboxamide], the MIC was 1.32 to 2.89 µM (≈ 0.514 to 1.13 µg/mL) in data set [1] (setting [13]), over 164 µM in data set [2], over 164 µM in data set [3] and 5.14 µM (≈ 2 µg/mL) in [4]. The “Selectivity index (SI)” value in data set [5] was 32.
As for `O=C(NC12CC3CC(CC(O)(C3)C1)C2)c1cc2c(Cl)cc(Cl)cc2[nH]1` [8j, 4,6-dichloro-N-(3-hydroxyadamantan-1-yl)-1H-indole-2-carboxamide], the MIC is 1.32 µM (≈ 0.501 µg/mL) in [1] (setting [14]); over 169 µM in data set [2]; over 169 µM in data set [3]; 1.32 µM (≈ 0.501 µg/mL) in data set [4]; 0.66 µM (≈ 0.25 µg/mL) in [7]. Also, the “Selectivity index (SI)” value in data set [5] was at least 128.
In the case of `O=C(NC12CC3CC(CC(C3)C1)C2)c1cc2c(F)cc(F)cc2[nH]1` [8k, N-(1-Adamantyl)-4,6-difluoro-1H-indole-2-carboxamide], the MIC in data set [1] (setting [13]) is 0.024 µM (≈ 0.00793 µg/mL); in data set [2] it was over 194 µM; in data set [3], over 194 µM; in data set [4], 0.024 µM (≈ 0.00793 µg/mL); in [7], 0.012 µM (≈ 0.00396 µg/mL); in data set [8], 0.012 to 0.024 µM (≈ 0.00396 to 0.00793 µg/mL). In [5], the “Selectivity index (SI)” value is recorded as at least 8205. In [6], this compound displayed a kinetic solubility of 7 µg/mL (≈ 21.2 µM).
On to `O=C(NC12CC3CC(CC(O)(C3)C1)C2)c1cc2c(F)cc(F)cc2[nH]1` [8l, 4,6-difluoro-N-(3-hydroxyadamantan-1-yl)-1H-indole-2-carboxamide], for which the MIC in data set [2] is over 185 µM; in [3] it was over 185 µM; in data set [4], 2.89 µM (≈ 1 µg/mL). For the same compound, the “Selectivity index (SI)” value in data set [5] is 32. In [6], this compound registered a kinetic solubility of 19 µg/mL (≈ 54.9 µM).
`O=C(Nc1cc(Cl)cc(Cl)c1)NC12CC3CC(CC(C3)C1)C2` [10a, 1-(1-Adamantyl)-3-(3,5-dichlorophenyl)urea]: the “M. abs MIC” value in data set [2] (MABA) was over 189 µM. Also, the MIC is over 189 µM in data set [2], 47.2 µM (≈ 16 µg/mL) in data set [3] and 1.47 µM (≈ 0.499 µg/mL) in data set [4]. Further, in data set [5], the “Selectivity index (SI)” value came to 4.0.
`O=C(Nc1cc(Cl)cc(Cl)c1)NC12CC3CC(CC(O)(C3)C1)C2` [10b, 1-(3,5-dichlorophenyl)-3-(3-hydroxyadamantan-1-yl)urea] displayed an MIC in data set [1] (setting [13]) of over 90 µM.
`O=C(Nc1nc2ccccc2[nH]1)C12CC3CC(CC(C3)C1)C2` [13a, N-(1H-benzo[d]imidazol-2-yl)adamantane-1-carboxamide] returned an MIC in data set [1] (setting [13]) of 13.5 µM (≈ 3.99 µg/mL).
As to `O=C(CC12CC3CC(CC(C3)C1)C2)Nc1nc2ccccc2[nH]1` [13b, 2-(1-Adamantyl)-N-(1H-benzo[d]imidazol-2-yl)acetamide], the MIC in [1] (setting [14]) and in data set [1] (setting [13]) was over 103 µM each time.
Regarding `COc1nc2ccc(Br)cc2cc1[C@@H](c1ccccc1)[C@@](O)(CCN(C)C)c1cccc2ccccc12` [bedaquiline], the “MIC against both DS- and DR-TB” value in data set [9] was 0.11 µM (≈ 0.0611 µg/mL). Besides, the logP (in general, the decadic logarithm of the partition coefficient of the neutral form, usually between octanol and water) in data set [10] was over 7.
Take `CC1(C)CCC(NC(=O)c2cc3c(Cl)cc(Cl)cc3[nH]2)CC1` [compound 1]: the MIC in data set [11] (ref 23) was 0.015 [23] μM.
`O=C(NC12CC3CC(CC(C3)C1)C2)c1cc2c(Cl)cc(Cl)cc2[nH]1` [compound 2, N-(1-adamantyl)-4,6-dichloroindole-2-carboxamide]: the MIC in [11] (ref 45) is 0.011 μM and 0.011 [45] μM. Also, the in vivo activity entry in data set [12] (due to poor bioavailability) and in data set [12] (likely due to poor bioavailability) was “inactive in vivo” in each case.
In the case of `O=C(Nc1ccc(F)c(F)c1F)NC1C2CC3CC(C2)CC1C3` (centres unmarked) [compound 4], the MIC in [11] (ref 26, 43) was 0.03–0.3 [26, 43] μM.
For `O=C(Nc1nc2ccccc2[nH]1)NC12CC3CC(CC(C3)C1)C2` [compound 12, 1-(1-adamantyl)-3-(1H-benzo[d]imidazol-2-yl)urea], the MIC in [1] (setting [13]) stood at 25.8 µM (≈ 8.01 µg/mL).
